Measurements as given in patent US8084630B2, “Process for the synthesis of ramelteon and its intermediates” (Teva Pharmaceutical Industries Ltd., priority 2007, dated 2011).
“And” between values parts separate entries of the source, which are not always exact repeats. Identical values can stand only once. Like-named read-outs stand apart in the source and are kept apart here.

Legend:
[1] = Electrostatic charge measurement (shaking can, Faraday cup); format: physicochemical; conditions: for Average Charge Density of Batch: 3 samples; for Calculated Charge Density: shaken 90 seconds
Text: Electrostatic Charge Measurement
Equipment and Accessories
Electrical Shaker—Scientific Industries type Vortex-2 Genie (including specific holder for the shaking cans).
Electrostatic Charge Meter—Monroe Electronics type Nanocoulomb Meter 253 (Faraday Cup).
Metal shaking can, S.S. 316, 30×50_mm.
Plastic shaking can, Perspex, 30×50_mm.
Description of Test Procedure
Calibration of the Electrostatic Charge Meter, prior the test according to manufacturer's procedure.
6 sample cans were used for each batch.
The shaking can placed in flat dish, the sample cam was opened and the powder was manually poured into the shaking can.
The shaking can was hermetically closed by plastic cover and mounted in the holder.
The electrical shaker was operated for 90 seconds, at maximum rate.
Subsequent of the shaking period the shaking can was moved into the flat dish, the cover was removed and the powder was manually poured into a glass can within the Faraday-Cup. Some of the powder was transferred by gravitational pouring (90-99%), the rest was transferred by manually push using wooden spatula (with strict adherence to tender motion).
The Faraday-Cup was closed and the charge reading (in meter display) was recorded. The described test stages were equally conducted on the selected 6 samples of each batch, as follow: 3 powder samples were shaken in metal can, 3 powder samples were shaken in plastic can. All the samples were shaken in each can for the same time period of 90 seconds.

[2] = Flowability, FT4 Powder Rheometer (REP+VFR); format: physicochemical; conditions: 25 mm blade, 25 ml vessel; for BFE (Basic Flow Energy = Energy Test 7): tipspeed 100 mm/s
Protocol: Instrument: FT4 Powder Rheometer (Freeman Technology Ltd).
Methodology: The blade was rotated and simultaneously moved axially into a powder sample whist axial force and rotational forces are measured.
The 25 mm blade and a 25 ml split borosilicate test vessel were used.
The Stability and Variable Flow Rate programs were run together by combining the two methods into one program (REP+VFR). The REP+VFR study is a combination of the seven conditioning and test cycles (blade tipspeed is 100 mm/s) at constant speed and the four conditioning and test cycles (blade tipspeed is 100, 70, 40 and 10 mm/s, respectively) with decreasing in blade speed. Definitions of the Flow Parameters:
Basic Flow Energy (BFE)=Energy Test 7, mJ
Stability index (SI)=Energy test 7/Energy Test 1

[3] = target: melatonin MT1 receptor (Homo sapiens, UniProt P48039); conditions: cited from earlier work
melatonin MT1 receptor, sequence (P48039 whole entry): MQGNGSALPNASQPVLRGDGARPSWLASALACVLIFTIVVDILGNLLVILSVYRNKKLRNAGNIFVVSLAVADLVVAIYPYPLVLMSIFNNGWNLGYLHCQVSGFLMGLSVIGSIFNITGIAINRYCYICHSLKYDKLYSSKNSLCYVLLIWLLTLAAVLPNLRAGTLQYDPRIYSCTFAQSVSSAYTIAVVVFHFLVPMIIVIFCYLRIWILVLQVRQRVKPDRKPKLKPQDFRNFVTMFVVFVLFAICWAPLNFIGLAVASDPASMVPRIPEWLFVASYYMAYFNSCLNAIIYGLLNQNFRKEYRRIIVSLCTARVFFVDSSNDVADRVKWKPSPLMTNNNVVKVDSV

[4] = target: T1, melatonin MT2 receptor (Homo sapiens, UniProt P49286); conditions: cited from earlier work
T1 sequence (P49286 1-362): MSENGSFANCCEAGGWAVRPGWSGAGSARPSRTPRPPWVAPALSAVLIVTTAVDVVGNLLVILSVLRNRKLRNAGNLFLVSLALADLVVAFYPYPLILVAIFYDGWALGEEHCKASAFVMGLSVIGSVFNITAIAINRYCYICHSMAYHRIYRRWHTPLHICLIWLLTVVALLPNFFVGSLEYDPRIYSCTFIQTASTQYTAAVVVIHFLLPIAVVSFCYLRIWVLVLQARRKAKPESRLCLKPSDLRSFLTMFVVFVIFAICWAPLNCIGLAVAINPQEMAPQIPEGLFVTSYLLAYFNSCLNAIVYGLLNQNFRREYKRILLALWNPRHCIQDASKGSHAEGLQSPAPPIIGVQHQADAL

[5] = target: T2, MT3 receptor (Homo sapiens, UniProt P16083); conditions: cited from earlier work
T2 sequence (P16083 1-231): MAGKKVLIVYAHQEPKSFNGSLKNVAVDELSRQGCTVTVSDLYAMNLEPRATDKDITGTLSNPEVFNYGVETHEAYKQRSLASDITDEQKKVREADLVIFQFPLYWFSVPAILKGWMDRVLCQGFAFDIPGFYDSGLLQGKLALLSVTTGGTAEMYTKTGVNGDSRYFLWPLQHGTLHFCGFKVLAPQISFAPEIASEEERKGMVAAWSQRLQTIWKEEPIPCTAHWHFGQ

[6] = cited from earlier work

| Structure (SMILES) | Average Charge Density of Batch ([1]; metal can) | Average Charge Density of Batch ([1]; plastic can) | Calculated Charge Density ([1]; plastic can) | BFE (Basic Flow Energy = Energy Test 7) ([2]; listed as Sample from Toluene) | SI (Stability index = Energy test 7/Energy Test 1) ([2]; listed as Sample from Toluene) | affinity for melatonin MT1 receptor [3] | affinity for melatonin MT2 receptor [4] | selectivity over the MT3 receptor [5] | solubility ([6]; 1-octanol) | solubility ([6]; DMSO) | solubility ([6]; aqueous buffer) | solubility ([6]; ethanol) | solubility ([6]; methanol) | solubility ([6]; water) | average charge density relative to sample obtained from Toluene ([1]; metal can) | Calculated Charge Density ([1]; metal can) | average charge density relative to sample obtained from Toluene ([1]; plastic can) | SI (Stability index = Energy test 7/Energy Test 1) [2] | BFE (Basic Flow Energy = Energy Test 7) ([2]; listed as Sample from Ethylacetate) |
| --- | --- | --- | --- | --- | --- | --- | --- | --- | --- | --- | --- | --- | --- | --- | --- | --- | --- | --- | --- |
| CCC(=O)NCC[C@@H]1CCc2ccc3c(c21)CCO3 [Toluene, ramelteon] | 0.82 nC/gr | 0.72 nC/gr | 0.85 nC/gr and 0.6 nC/gr and 0.7 nC/gr | 92.5 mJ | 1.02 | – | – | – | – | – | – | – | – | – | – | – | – | – | – |
| CCC(=O)NCC[C@@H]1CCc2ccc3c(c21)CCO3 [Ramelteon, (S)—N-[2-(1,6,7,8-tetrahydro-2H-indeno-[5,4-b]furan-8-yl)ethyl]propionamide] | – | – | – | – | – | high affinity | high affinity | selectivity over the MT3 receptor | freely soluble | freely soluble | highly soluble | freely soluble | freely soluble | highly soluble | – | – | – | – | – |
| CCC(=O)NCC[C@@H]1CCc2ccc3c(c21)CCO3 [Ethyl Acetate, ramelteon] | 9.63 nC/gr | 10.82 nC/gr | 10.1 nC/gr and 14.05 nC/gr and 8.3 nC/gr | – | – | – | – | – | – | – | – | – | – | – | about 12 times | 8.8 nC/gr and 10.1 nC/gr and 10.0 nC/gr | about 15 times | 0.622 | 181 mJ |
